Patent US20260185056A1, “TRIPLE TISSUE CULTURE FUSION” (IMBA - INSTITUT FÜR MOLEKULARE BIOTECHNOLOGIE GMBH, priority 2022, published 2026)
Entries after “also recorded” stand apart in the source; their conditions may differ.

Assays:
striatal organoids = assay: SAG dose-response curve in presence of IWP2 for LGE patterning of striatal organoids; assay type: cell-based, human
Procedure: Panel C, D: Quantifications of GSX2^+ rosettes and PAX6^− rosettes, indicating LGE identity.
Panel E-F: Immunolabeling of CTIP2, an important early striatal marker, in two conditions with promising numbers of GSX2^+ rosettes, but low PAX6 expression.
For striatal organoid preparation, cells were grown for 2-3 days after splitting in MG coated 6 well plates and dissociated using 600 μl Accutase. 9000 cells were then transferred into 150 μl neural induction media containing 10 nM SAG and 2.5 μM IWP2 (SigmaAldrich, Cat. #10536) as well as 1:100 ROCK inhibitor. Media was exchanged on day 2 by replacing 100 μl media with 150 μl fresh NI media containing 10 nM SAG, 2.5 μM IWP2 and 1:100 ROCK inhibitor.
Striatal neurons are born majorly from the lateral ganglionic eminence (LGE), from where they migrate and form the developing striatum (Fjodorova, Noakes and Li, Neurogenesis, 2(1), 2015, Ornorati et al., Nat. Neurosci. 17, 1804-15, 2014). To pattern into LGE, we performed a dose curve experiment in a Wnt inhibitory context (IWP-2, which anteriorized and inhibits dorsal fate) similar to previous 2D differentiation approaches (Wu et al., Stem Cell Reports 11, 635-650, 2018). In brief, we activated sonic hedgehog signaling with the small molecule SAG at concentrations between 10 nM and 100 nM (FIG. 4B). We performed a SAG dose-response curve in the presence of the Wnt inhibitor IWP2 in an otherwise growth-factor free neural induction media.

[1] = test system: ventral midbrain organoids; assay: SAG dose curve for floor plate induction in ventral midbrain organoids (qPCR FOXA2); assay type: cell-based, human; conditions: day 4-11, with dual SMAD inhibition and Wnt activation; by day 20
Procedure: FIG. 2A-D: qPCR analysis of markers of ventral midbrain of the dose curving experiment to generate ventral midbrain organoids. Two separate dose curving experiments were performed, where first the correct dosage of sonic hedgehog activation was tested (FIG. 2A, floor plate marker FOXA2). Secondly, we performed qPCR to test for appropriate concentrations of posteriorization using Wnt activation. Dopaminergic neurons are born in the very ventral floor plate of the posterior midbrain, next to the midbrain-hindbrain boundary, thus the Forebrain and Midbrain marker OTX2 should still be expressed, whereas the hindbrain is OTX2 negative. We found a concentration of 0.8-1 μM sufficient to introduce midbrain (FIG. 2B), while the floor plate marker FOXA2 was still expressed (FIG. 2C). qPCR for the dopaminergic marker TH (Tyrosine hydroxylase, the rate-limiting enzyme for dopamine synthesis) confirmed this concentration of Wnt activation, with a sharp drop of TH expression starting at 1.2 μM CHIR (FIG. 2D).
All qPCR data are relative to the expression of TBP.
For ventral midbrain organoid preparation, cells were grown for 2-3 days after splitting in MG coated 6 well plates and dissociated using 600 μl Accutase. […] Cells were resuspended in 1 ml stem cell media +1:100 RI and counted. […]
Quantification was performed in excel by calculating ΔCt relative to TBP. […]

[2] = lowest concentration of SAG (10 nM), with IWP2, day 28 organoids

CN[C@H]1CC[C@H](N(Cc2cccc(-c3ccncc3)c2)C(=O)c2sc3ccccc3c2Cl)CC1 [SAG, 3-Chloro-N-[trans-4-(methylamino)cyclo-hexyl]-N-[[3-(4-pyridinyl)phenyl]methyl]benzo[b]thiophene-2-carboxamide]
CTIP2 expression (striatal organoids; 25 nM SAG treated organoids compared with SAG10 treated organoids): much lower; also recorded: significantly lower
rosettes expressing the LGE marker GSX2 (striatal organoids; [2]): high level
rosettes expressing the more dorsal marker PAX6 (striatal organoids; [2]): low number
concentration sufficient to introduce maximal FOXA2 expression levels [1]: 300 nM
